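GI50 marks 50% less growth. TGI marks complete inhibition of growth.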
How the values were obtained:
Test in all cases: NCI tumour cell line growth inhibition, 384-well format
[1] = tested on: K-562 leukemia
[2] = tested on: EKVX NSCLC
[3] = tested on: SK-MEL-5 melanoma
[4] = tested on: DU-145 prostate
[5] = tested on: NCI-H322M lung
[6] = tested on: MDA-MB-231 breast
[7] = tested on: NCI-H23 lung
[8] = tested on: UACC-62 melanoma
[9] = tested on: MDA-MB-468 breast
[10] = tested on: HOP-92 NSCLC
[11] = tested on: OVCAR-5 ovarian
[12] = tested on: M14 melanoma
[13] = tested on: NCI-H226 lung
[14] = tested on: OVCAR-8 ovarian
[15] = tested on: NCI-H460 NSCLC
[16] = tested on: T-47D breast
[17] = tested on: LOX IMVI melanoma
[18] = tested on: KM12 colon
[19] = tested on: SNB-75 CNS
[20] = tested on: SF-539 CNS
[21] = tested on: MCF7 breast
[22] = tested on: SN12C renal
[23] = tested on: SNB-19 CNS
[24] = tested on: A549 NSCLC
[25] = tested on: OVCAR-3 ovarian
[26] = tested on: HCT-15 colon
[27] = tested on: HOP-62 NSCLC
[28] = tested on: SK-OV-3 ovarian
[29] = tested on: TK-10 renal
[30] = tested on: UACC-257 melanoma
[31] = tested on: RXF 393 renal
[32] = tested on: 786-0 renal
[33] = tested on: NCI-H522 lung
[34] = tested on: UO-31 renal
[35] = tested on: SR leukemia
[36] = tested on: RPMI-8226 leukemia
[37] = tested on: CAKI-1 renal
[38] = tested on: SF-295 CNS
[39] = tested on: U251 glioblastoma
[40] = tested on: HL-60(TB) leukemia
[41] = tested on: MDA-MB-435 melanoma
[42] = tested on: OVCAR-4 ovarian
[43] = tested on: HCC-2998 colon
[44] = tested on: HS 578T breast
[45] = tested on: SF-268 CNS
[46] = tested on: HT29 colon
[47] = tested on: A498 renal

CNC(=O)c1ccc(-c2cnc3ncc(Cc4ccc5ncccc5c4)n3n2)cc1F
GI50 [1]: > 100 µM | TGI [1]: > 100 µM | GI50 [2]: > 100 µM | TGI [2]: > 100 µM | GI50 [3]: > 100 µM | TGI [3]: > 100 µM | GI50 [4]: > 100 µM | TGI [4]: > 100 µM | GI50 [5]: > 100 µM | TGI [5]: > 100 µM | GI50 [6]: > 100 µM | TGI [6]: > 100 µM | GI50 [7]: > 100 µM | TGI [7]: > 100 µM | GI50 [8]: > 100 µM | TGI [8]: > 100 µM | GI50 [9]: > 100 µM | TGI [9]: > 100 µM | GI50 [10]: > 75 µM | TGI [10]: > 100 µM | GI50 [11]: > 100 µM | TGI [11]: > 100 µM | GI50 [12]: > 100 µM | TGI [12]: > 100 µM | GI50 [13]: > 100 µM | TGI [13]: > 100 µM | GI50 [14]: > 100 µM | TGI [14]: > 100 µM | GI50 [15]: > 100 µM | TGI [15]: > 100 µM | GI50 [16]: > 100 µM | TGI [16]: > 100 µM | GI50 [17]: > 100 µM | TGI [17]: > 100 µM | GI50 [18]: > 77.3 µM | TGI [18]: > 100 µM | GI50 [19]: > 61.6 µM | TGI [19]: > 94.5 µM | GI50 [20]: > 100 µM | TGI [20]: > 100 µM | GI50 [21]: > 100 µM | TGI [21]: > 100 µM | GI50 [22]: > 77.6 µM | TGI [22]: > 100 µM | GI50 [23]: > 100 µM | TGI [23]: > 100 µM | GI50 [24]: > 100 µM | TGI [24]: > 100 µM | GI50 [25]: > 100 µM | TGI [25]: > 100 µM | GI50 [26]: > 100 µM | TGI [26]: > 100 µM | GI50 [27]: > 100 µM | TGI [27]: > 100 µM | GI50 [28]: > 100 µM | TGI [28]: > 100 µM | GI50 [29]: > 100 µM | TGI [29]: > 100 µM | GI50 [30]: > 100 µM | TGI [30]: > 100 µM | GI50 [31]: > 43.1 µM | TGI [31]: > 100 µM | GI50 [32]: > 87.7 µM | TGI [32]: > 100 µM | GI50 [33]: > 100 µM | TGI [33]: > 100 µM | GI50 [34]: > 100 µM | TGI [34]: > 100 µM | GI50 [35]: > 50.9 µM | TGI [35]: > 100 µM | GI50 [36]: > 100 µM | TGI [36]: > 100 µM | GI50 [37]: > 100 µM | TGI [37]: > 100 µM | GI50 [38]: > 72.6 µM | TGI [38]: > 100 µM | GI50 [39]: > 100 µM | TGI [39]: > 100 µM | GI50 [40]: > 100 µM | TGI [40]: > 100 µM | GI50 [41]: > 100 µM | TGI [41]: > 100 µM | GI50 [42]: > 100 µM | TGI [42]: > 100 µM | GI50 [43]: > 100 µM | TGI [43]: > 100 µM | GI50 [44]: > 100 µM | TGI [44]: > 100 µM | GI50 [45]: > 76.9 µM | TGI [45]: > 100 µM | GI50 [46]: > 100 µM | TGI [46]: > 100 µM | GI50 [47]: > 100 µM | TGI [47]: > 100 µM

— PubChem BioAssay (NCI)
